{"source": "patent US20250017949A1", "about": "“METHODS AND COMPOSITIONS FOR SUPPRESSING AGING-ASSOCIATED CLONAL HEMATOPOIESIS” (The Jackson Laboratory, priority 2021, published 2025)", "key": {"[1]": {"system": "Dnmt3a^R878H/+ cells", "assay": "Etanercept transplants (pan-TNFα blockade after competitive secondary transplant)", "format": "in vivo, mouse", "from_the_text": "FIGS. 7A-7H: TNFR1 is required for Dnmt3a^R878H/+ HSC self-renewal while TNFR2 regulates lymphoid cell production. (FIG. 7A) Schematic of experimental design to test competitive, serial transplant of Mx-Cre control, Dnmt3a^R878H/+(R878H/+), Dnmt3a^R878H/+ Tnfrsf1a^−/− (R878H/+; TNFR1KO) and Dnmt3a^R878H/+ Tnfrsf1b^−/− (R878H/+; TNFR2KO) in aged (>12 mo) recipient mice. (FIG. 7B) Frequency of donor cells in PB (left) and BM (right) of recipient mice at 20 weeks post-secondary transplant. Significance was calculated using Brown-Forsythe and Welch ANOVA with Welch's correction. (FIG. 7C) Representative flow cytometry plots showing B cell and myeloid cell frequencies in donor derived PB. (FIG. 7D) Frequency of B cells (left), T cells (center) and myeloid cells (right) in donor derived PB at 20 weeks post-secondary transplant. Significance was calculated using one-way ANOVA with Tukey's multiple comparisons test. (FIG. 7E) Experimental schematic of transplant experiment with etanercept treatment. (FIG. 7F) Frequency of control or R878H/+ donor cells in PB pre- and post-etanercept treatment. Significance was calculated using two-way ANOVA with Fisher's LSD. (FIG. 7G) Frequency of control or R878H/+ donor cells in BM post-etanercept or vehicle treatment. Significance was calculated using two-way ANOVA with Fisher's LSD. (FIG. 7H) Frequency of HSC, MPP^Mk/E, MPP^G/M, and MPP^Ly populations in control or R878H/+ BM. Significance was calculated using two-way ANOVA with Fisher's LSD. (FIGS. 7B and 7D) Dots represent individual recipient mice, boxes show 25 to 75th percentile, line is median, whiskers show min to max. (FIG. 7F) Dots represent mean across biological replicates (n=4). (FIGS. 7G and 7H) Bars represent mean+/− SEM (n=4). *P<0.05, **P<0.01, ***P<0.001, ****P<0.0001.\nTNFα signaling occurs through two distinct TNFα receptors, TNFR1 (Tnfrsf1a) and TNFR2 (Tnfrsf1b). Both TNFR1 and TNFR2 are expressed on HSC and MPP populations and are not altered in surface expression between control and Dnmt3a^R878H/+ mice (data not shown). To determine which of these receptors are responsible for TNFα-mediated selective advantage of Dnmt3a^R878H/+ HSCs and B lymphoid cell production, we crossed Dnmt3a^R878H/+ mice with Tnfrsf1a or Tnfrsf1b knockout mice (data not shown) and tested HSC function by competitive serial BM transplantation into aged recipients (FIG. 7A). […]\n1×10^6 BM cells from 2-4-month-old Dnmt3a^+/+ Mx-Cre or Dnmt3a^fl-R878H/+ Mx-Cre donors were competitively transplanted with wild-type CD45.1+ CD45.2+ F1 BM cells in 2-4-month-old CD45.1+ lethally irradiated recipients. […] PB was monitored weekly and at 28 weeks post-transplant, bone marrow was harvested for analysis."}, "[2]": {"system": "STAT3", "assay": "Phosphorylation in HSPCs in response to recombinant OSM stimulation", "format": "cell-based, mouse", "conditions": "recombinant OSM stimulation for 30 minutes; FIG. 10G", "from_the_text": "(§1) FIGS. 10A-10G: OSM signaling is increased in Dnmt3a-mutant hematopoietic stem cells (HSCs) in an aged bone marrow microenvironment. (FIG. 10A) Experiment design. (FIG. 10B) Volcano plot of differentially expressed genes between Dnmt3a-mutant (R878H) vs. wild-type (+/+) HSCs in young recipients (left panel) and aged recipients (right panel). […] (FIG. 10C) Ingenuity Pathway Analysis prediction of upstream factors that would produce the differential gene expression pattern observed in aged recipients shown in FIG. 10B. (FIG. 10D) Gene set enrichment analysis of OSM signaling signature in Dnmt3a-mutant (R878H) vs. wild-type (+/+) HSCs specifically in aged recipient mice. (FIG. 10E) OSM levels in bone marrow fluid of young, middle-aged and old C57BL/6 wild-type mice assessed by ELISA. (FIG. 10F) Schematic of OSM-OSMR signaling pathway with differentially expressed genes in Dnmt3a-mutant vs. control HSCs colored in green (increased) or orange (decreased). (FIG. 10G) Phosphorylation of Stat3 (left panel) and Stat5 (right panel) in wild-type or Dnmt3a-mutant HSPCs in response to recombinant OSM stimulation for 30 minutes.\n(§2) To determine which factor(s) might be elevated in the aged bone marrow microenvironment that would impact Dnmt3a-mutant HSPCs, donor-derived hematopoietic stem cells (HSCs) were re-isolated from the experiment shown in FIG. 9A (design shown in FIG. 10A). […]"}, "[3]": {"system": "STAT5", "assay": "Phosphorylation in HSPCs in response to recombinant OSM stimulation", "format": "cell-based, mouse", "conditions": "recombinant OSM stimulation for 30 minutes; FIG. 10G", "from_the_text": "as §1, §2"}, "[4]": {"system": "Dnmt3a-mutant HSCs vs wild-type HSCs", "assay": "Mixed HSC culture with or without recombinant OSM, then transplant and engraftment", "format": "in vivo, mouse", "conditions": "then transplant, FIGS. 11B-11C", "from_the_text": "(FIG. 11A) Experiment design. Contribution of wild-type (WT F1) and competitor Dnmt3a-mutant (R878H/+) cells to peripheral blood (FIG. 11B) and bone marrow (FIG. 11C) of recipient mice after culture with or without recombinant OSM.\nNext, to determine if OSM stimulation has a differential functional effect on Dnmt3a-mutant vs. control HSCs, we established mixed cultures of purified control and Dnmt3a-mutant HSCs in culture conditions that promote HSC self-renewal and expansion. To test HSC function, we transplanted cells at the end of the culture period into recipient mice and measured their engraftment capacity (FIG. 11A). We find that in absence of OSM there is similar or equal engraftment of wild-type and Dnmt3a-mutant competitor cells in recipient mice (FIGS. 11B-11C). […] This finding supports that OSM is a major factor causing clonal hematopoiesis."}, "[5]": {"system": "wild-type MxCre control hematopoietic stem and progenitor cells", "assay": "Myeloid colony formation in media containing MitoQ or vehicle (DMSO)", "format": "cell-based, mouse", "conditions": "in vitro, MitoQ vs vehicle (DMSO); FIG. 3", "experimental": "(§3) Number of myeloid colonies produced from wild-type MxCre control or Dnmt3a-mutant (D3a) hematopoietic stem and progenitor cells in media containing MitoQ or vehicle (DMSO).\n(§4) To evaluate the extent to which targeting defects in mitochondrial metabolism might improve wild-type HSC function and thus reduce the selective advantage of Dnmt3a-mutant HSCs, cells were treated with the mitochondrially targeted antioxidant mitoquinol (MitoQ) in vitro and in vivo. […] Treatment with MitoQ or other methods to improve mitochondrial metabolism are attractive targets to consider in the treatment of clonal hematopoiesis and prevention of leukemia."}, "[6]": {"system": "Dnmt3a-mutant (D3a) hematopoietic stem and progenitor cells", "assay": "Myeloid colony formation in media containing MitoQ or vehicle (DMSO)", "format": "cell-based, mouse", "conditions": "in vitro, MitoQ vs vehicle (DMSO), FIG. 3", "experimental": "as §3, §4"}, "[7]": {"system": "Dnmt3a-mutant (D3a) hematopoietic stem cells", "assay": "In vivo MitoQ treatment after transplant into aged recipient mice", "set-up": "species or system mouse", "conditions": "in vivo MitoQ vs vehicle (PBS) after transplant into aged recipient mice, FIG. 4", "experimental": "Frequency of donor-derived cells produced from wild-type (MxCre) control or Dnmt3a-mutant (D3a) hematopoietic stem cells post-transplantation and in vivo treatment with MitoQ or vehicle (PBS).\nas §4"}, "[8]": {"conditions": "etanercept 25 mg/kg IP twice per week for four weeks vs vehicle, FIG. 7H"}}, "note": "“Also recorded” adds a separate entry of the source.", "data": [{"substance": "Etanercept", "values": [{"measurement": "Frequency of R878H/+ donor cells in BM (BM engraftment)", "setting": "[1]; etanercept 25 mg/kg IP twice per week for four weeks vs vehicle, FIG. 7G", "result": "trended toward reduction in BM engraftment"}, {"measurement": "Frequency of Dnmt3a^R878H/+ HSC, MPP^Mk/E and MPP^Ly populations in BM", "setting": "[1]; [8]", "result": "reduced the frequency"}, {"measurement": "Frequency of Dnmt3a^R878H/+ myeloid-primed multipotent progenitors MPP^G/M in BM", "setting": "[1]; [8]", "result": "trend toward increase"}, {"measurement": "Frequency of R878H/+ donor cells in PB (competitive PB advantage)", "setting": "[1]; etanercept 25 mg/kg IP twice per week for four weeks, pre- vs post-treatment, FIG. 7F", "result": "reduced the competitive PB advantage"}]}, {"substance": "OSM: recombinant pro-inflammatory cytokine Oncostatin M used to stimulate HSCs/HSPCs", "values": [{"measurement": "Phosphorylation of STAT3 in Dnmt3a-mutant vs control HSPCs", "setting": "[2]", "result": "greater phosphorylation of STAT3; also recorded: greater downstream Stat3 phosphorylation compared to control HSCs"}, {"measurement": "Phosphorylation of STAT5 in HSPCs", "setting": "[3]", "result": "phosphorylation of STAT5 was not seen"}, {"measurement": "Engraftment of Dnmt3a-mutant vs wild-type cells in peripheral blood and bone marrow of recipient mice", "setting": "[4]", "result": "favors growth of Dnmt3a-mutant hematopoietic stem cells (HSCs); also recorded: greater multi-lineage engraftment capacity in recipient mice compared to OSM-treated wild-type HSCs"}, {"measurement": "Engraftment of Dnmt3a-mutant vs wild-type cells in peripheral blood and bone marrow of recipient mice", "setting": "[4]; listed as recombinant OSM", "result": "entirely favors growth of Dnmt3a-mutant HSCs over wild-type cells"}]}, {"substance": "mitoquinol", "values": [{"measurement": "Myeloid differentiation of wild-type control cells", "setting": "[5]", "result": "did not impact differentiation of wild-type control cells"}, {"measurement": "Number of myeloid colonies / progeny produced from Dnmt3a-mutant cells", "setting": "[6]", "result": "reduce number of progeny produced from Dnmt3a-mutant cells; also recorded: decreases myeloid differentiation of hematopoietic stem and progenitor cells in vitro"}, {"measurement": "Number of myeloid colonies / progeny produced from Dnmt3a-mutant cells", "setting": "[6]; listed as MitoQ®", "result": "reduced myeloid differentiation of Dnmt3a-mutant HSCs"}, {"measurement": "Contribution of Dnmt3a-mutant cells to hematopoiesis (frequency of donor-derived cells)", "setting": "[7]", "result": "reduced contribution of Dnmt3a-mutant cells to hematopoiesis; also recorded: decreases contribution of Dnmt3a-mutant cells to mature hematopoiesis in vivo"}, {"measurement": "Contribution of Dnmt3a-mutant cells to hematopoiesis (frequency of donor-derived cells)", "setting": "[7]; listed as MitoQ®", "result": "impaired differentiation and mature cell production from Dnmt3a-mutant HSCs"}]}]}
